The values below come from patent publication US20230381125A1.

Molecules are shown by their SMILES. Read-outs that look alike come from different tables or passages of the source.

Data set [1] relates to MHV-1. In words: MHV-1 infected A/J mice given GABA-R agonist in drinking water. Type of data set: in vivo. To be noted: for body weight loss vs. plain water (FIG. 4A) / death rate vs. plain water (FIG. 4C) / disease (illness) scores vs. plain water (FIG. 4B) / lung coefficient index vs. plain water (FIG. 4D): Example 2, in water: GABA 2 mg/mL, homotaurine 0.25 mg/mL, baclofen 0.25 mg/mL; for mice that died up to day 14 post-infection: control 3/9 survived; for average body weight loss by day 6: control lost 23%.

For data set [2] the following is noted: room temperature; cited from earlier work.
For data set [3] the following is noted: rodent models of acute lung injury; cited from earlier work.
For data set [4], the system named is SARS-CoV-2. Type of data set: in vivo, K18-hACE2 mice. The settings on record: for mice that died during the 7-day observation period: control 3/5 died.
Data set [5] concerns the target SARS-CoV-2 binding to its cellular receptor (UniProt P0DTC2+Q9BYF1). To be noted: NIH core screening facility data; cited from earlier work.
The conditions of data set [6]: phase 1b oral dosing study; cited from earlier work.
The conditions of data set [7]: cited from earlier work; for CD4+ and CD8+ Treg responses in vivo / autoreactive Th1 and Th17 cells in vivo: in vivo administration; for disease progression in mouse models of type 1 diabetes, multiple sclerosis, and rheumatoid arthritis / inflammation in a mouse model of type 2 diabetes: in vivo.
For data set [8], the system named is SARS-CoV-2. To be noted: cited from earlier work.
Data set [9] concerns anti-CD3-activated human PBMC. The settings on record: cited from earlier work.
The conditions of data set [10]: cited from earlier work.
For data set [11] the following is noted: large long-term phase III clinical trial; cited from earlier work.
[12] abbreviates: GABA 20 mg/ml in water, from 3 days post-infection.
Where [13] appears, read: GABA 20 mg/ml in water, starting immediately after MHV-1 inoculation.
Where [14] appears, read: 0.2 mg/mL p=0.049, 20 mg/mL p=0.174, log-rank test.

Regarding `NCCCC(=O)O` [GABA, gamma-aminobutyric acid], in [1], the “body weight loss vs. plain water (FIG. 4A)” value was “significantly reduced”, the “death rate vs. plain water (FIG. 4C)” value is “significantly reduced” and the “disease (illness) scores vs. plain water (FIG. 4B)” value was “significantly reduced”. Also, the “body weight loss vs. control (FIG. 1A)” value in data set [1] (GABA0 and GABA3 vs. control, p<0.0001) is on record as “reduced”. In addition, the “illness scores vs. control (FIG. 2)” value in data set [1] (GABA0 and GABA3 vs. control, p<0.001) is on record as “reduced”. In addition, the “survival following MHV-1 infection vs. control (FIG. 1B)” value in [1] (GABA0 p=0.002, GABA3 p=0.001, log rank test) is given as “increased”. Besides, the “highest average illness score (scale 0-5)” value in data set [1] (GABA 20 mg/ml in water immediately after inoculation, day 7 post-infection) was determined as 1.6. Further, in data set [1] (setting [12]), the “body weight at 14 days post-infection, % of starting weight” value was 90% and the “maximum mean illness score (scale 0-5)” value came to 2.5. The “mice that died up to day 14 post-infection” value in data set [1] (GABA 20 mg/ml in water, from 3 days post-infection, death on day 9) is recorded as 1/9. Moreover, the “average body weight loss by day 6” value in data set [1] (GABA 20 mg/ml in water, given from three days after infection) was found to be 17%. Further, the “average body weight loss by day 6” value in [1] (GABA 20 mg/ml in water, given immediately after MHV-1 infection) was found to be 11%. In addition, in data set [1] (setting [13]), the “body weight below starting weight 14 days post-infection” value was found to be 7% and the “mice that died up to day 14 post-infection” value was “none”. Besides, the stability result in data set [2] is “stable at room temperature”. Also, in data set [3], the “inflammation, alveolar fluid clearance and lung functional recovery” value was “reduce inflammation and improve alveolar fluid clearance and lung functional recovery”. Moreover, in data set [4] (setting [14]), the “death rates vs. plain water” value is listed as “reduced” and the “survival following SARS-CoV2 infection vs. control (FIG. 5)” value is reported as “increased”. In addition, the “mice that died during the 7-day observation period” value in data set [4] (GABA 0.2 mg/mL in water, p<0.05) is recorded as “none”. Also, the “mice that died during the 7-day observation period” value in data set [4] (GABA 20 mg/ml in water, p=0.174) was 1/5. Further, in data set [4] (lungs harvested on days 6-7, data not shown), the “viral N1 and N2 transcripts in the lungs (RT-qPCR) vs. control” value is given as “tended to be lower”. In data set [5], the “interference with SARS-CoV-2 interaction with its cellular receptor” value is “did not interfere”. Further, the safety entry in data set [6] is given as “safe”. Further, in data set [7], the “CD4+ and CD8+ Treg responses in vivo” value is “promoting”; the “autoreactive Th1 and Th17 cells in vivo” value is “inhibits”; the “disease progression in mouse models of type 1 diabetes, multiple sclerosis, and rheumatoid arthritis” value is reported as “inhibits disease progression”; the “inflammation in a mouse model of type 2 diabetes” value is “limits inflammation”. For the same molecule, the “interference with SARS-CoV-2 replication” value in data set [8] (NIH core screening facility data) is on record as “did not interfere”. For the same molecule, the “effect on SARS infection or replication” value in data set [8] (NIH drug screening program) is “no effect”. Further, the “IL-6, CXCL10/IP-10, CCL4, CCL20, and MCP-3 production” value in data set [9] is reported as “inhibits”. The “clinical benefit (ability to reduce seizures)” value in [10] (hundreds of epilepsy patients) was “no clinical benefit”. Also, in data set [10] (long-term studies in epilepsy patients), the adverse effects result is reported as “no adverse effects”.
Regarding `NCC(CC(=O)O)c1ccc(Cl)cc1` (centres unmarked) [baclofen], in [1], the “body weight loss vs. plain water (FIG. 4A)” value is listed as “did not significantly decrease”, the “death rate vs. plain water (FIG. 4C)” value is reported as “did not significantly decrease”, the “disease (illness) scores vs. plain water (FIG. 4B)” value is “slight but significant ability to reduce” and the “lung coefficient index vs. plain water (FIG. 4D)” value is “did not significantly decrease”.
With `NCCCS(=O)(=O)O` [homotaurine], in data set [11], the “efficacy in Alzheimer's disease” value is reported as “not effective” and the safety result was “excellent safety record”. In data set [1], the “body weight loss vs. plain water (FIG. 4A)” value is given as “significantly reduced”, the “death rate vs. plain water (FIG. 4C)” value is “significantly reduced”, the “disease (illness) scores vs. plain water (FIG. 4B)” value is reported as “significantly reduced” and the “lung coefficient index vs. plain water (FIG. 4D)” value was “significantly reduced”. The stability entry in data set [2] is reported as “stable at room temperature”. For the same molecule, in data set [7], the “CD4+ and CD8+ Treg responses in vivo” value is “promoting”; the “autoreactive Th1 and Th17 cells in vivo” value is on record as “inhibits”; the “disease progression in mouse models of type 1 diabetes, multiple sclerosis, and rheumatoid arthritis” value was “inhibits disease progression”; the “inflammation in a mouse model of type 2 diabetes” value is recorded as “limits inflammation”.
